# Biological target: Peroxisome proliferator-activated receptor gamma (Homo sapiens) (UniProt P37231)
# Assay: Effective concentration for human peroxisome proliferator-activated receptor gamma
row,EC50 [µM],SMILES
1,0.6,CCO[C@@H](Cc1ccc(OC/C=C(/C)C#Cc2ccccc2)cc1)C(=O)O [(S)-2-Ethoxy-3-[4-((Z)-3-methyl-5-phenyl-pent-2-en-4-ynyloxy)-phenyl]-propionic acid]
2,14,CCO[C@@H](Cc1ccc(OCc2ccc(COc3ccc(C[C@H](OCC)C(=O)O)cc3)cc2)cc1)C(=O)O [(S)-3-(4-{4-[4-((S)-2-Carboxy-2-ethoxy-ethyl)-phenoxymethyl]-benzyloxy}-phenyl)-2-ethoxy-propionic acid]
3,15,CCO[C@@H](Cc1ccc(O/C=C\Oc2ccc(C[C@@H](OCC)C(=O)O)cc2)cc1)C(=O)O [(S)-3-(4-{(Z)-2-[4-((R)-2-Carboxy-2-ethoxy-ethyl)-phenoxy]-vinyloxy}-phenyl)-2-ethoxy-propionic acid]

# Reference: BindingDB's records for doi:10.1016/j.bmcl.2004.12.084 (Novo Nordisk, 2005)
